These results are taken from ChEMBL document CHEMBL1151550, “High-affinity FKBP-12 ligands derived from (R)-()-carvone. Synthesis and evaluation of FK506 pyranose ring replacements” (Bioorg Med Chem Lett, 1995).

For this test, the target named is Peptidyl-prolyl cis-trans isomerase FKBP1A (Homo sapiens, UniProt P62942). The experiment in a line: Inhibitory activity of compound against FK506 binding protein 12 was determined. Conditions: read-out: Ki app.

Each structure is given as a SMILES string.

Sequence of Peptidyl-prolyl cis-trans isomerase FKBP1A (P62942 whole entry): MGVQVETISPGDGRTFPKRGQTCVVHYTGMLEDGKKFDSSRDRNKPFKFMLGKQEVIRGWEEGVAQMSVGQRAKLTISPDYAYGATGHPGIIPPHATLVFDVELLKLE

Regarding `COC(CC(C)C)[C@@H]1CC[C@@H](C)[C@](O)(C(=O)C(=O)N2CCCC[C@H]2C(=O)OCc2ccccc2)C1` (stereo partly specified), the Ki is 2.8 nM.

Regarding `CC(C)[C@@H]1CC[C@@H](C)[C@](O)(C(=O)C(=O)N2CCCC[C@H]2C(=O)OCc2ccccc2)C1`, the Ki turned out to be 210 nM.

Regarding `C/C=C\C(OC)[C@@H]1CC[C@@H](C)[C@](O)(C(=O)C(=O)N2CCCC[C@H]2C(=O)OCc2ccccc2)C1` (stereo partly specified), the Ki came to 112 nM.

On to `COC(C=C(C)C)[C@@H]1CC[C@@H](C)[C@](O)(C(=O)C(=O)N2CCCC[C@H]2C(=O)OCc2ccccc2)C1` (stereo partly specified), for which the Ki worked out at 68 nM.

On to `COC[C@@H]1CC[C@@H](C)[C@](O)(C(=O)C(=O)N2CCCC[C@H]2C(=O)OCc2ccccc2)C1`, for which the Ki came to 258 nM.

For `COC(C)[C@@H]1CC[C@@H](C)[C@](O)(C(=O)C(=O)N2CCCC[C@H]2C(=O)OCc2ccccc2)C1` (stereo partly specified), the Ki amounted to 81 nM.
